Measurements as given in patent US20020028851A1, “Guanylhydrazones and their use to treat inflammatory conditions” (priority 1994, published 2002).

Legend:
[1] = tested on: Lewis rats; assay: Focal cerebral infarction (middle cerebral artery severing); format: in vivo; details: 1 mg/Kg i.v. one hour before artery severed; 24 hours; p<0.05 vs controls
Method: Lewis rats (male, 270-300 g) were given food and water ad libi tum before and after surgery. Animals were anesthetized with ketamine (120 mg/Kg i.m.), allowed to breathe spontaneously, and body temperature maintained at 35.5-36.5° C. with a heating blanket. The ventral neck and area between the right eye and ear was shaved. A midline ventral cervical incision was used to expose the left common carotid artery (CCA) which was dissected free from surrounding tissue with preservation of the vagus nerve. A loop of 4-0 silk was then placed around the artery for future manipulation. The right common carotid artery was then exposed and permanently occluded with double 4-0 silk ligatures. […]
Twenty-four hours after MCA severing, animals were anesthetized and decapitated and the brains were quickly removed without perfusion and coronally sectioned at 1 mm intervals with a brain slicer for analysis. […] Slices were then placed in buffered 10% formalin and infarct area determined by planimetry on projected images of photographed brain slices. Infarct size for an individual animal was calculated by summing the infarct area present on each brain slice and dividing by the sum of hemisphere area for all slices for that animal (expressed as a percentage of hemisphere area for each slice). Animals were studied in groups of 10, and the data expressed as average stroke volume for the group.

[2] = tested on: TNF; assay: TNF production by LPS/γIFN-stimulated RAW 264.7 cells; format: cell-based, murine
Method: RAW 264.7 cells were plated in standard 6-well culture plates at a density of 10^6/well and allowed to adhere for from 2 hr to overnight. The medium was then replaced with medium containing the compound to be tested. One hour later, the medium was supplemented so as to contain 25 U/ml γIFN and 0.1 μg/ml LPS and the cultures incubated a further 18 hr. The medium was then collected, and cell debris removed by centrifugation. This conditioned supernatant was then assayed for the presence of TNF using standard methodologies: L929 cell cytotoxicity bioassay, radioimmunoassay or ELISA, and Western blotting with antibodies against murine TNF.

[3] = LD50; format: in vivo
[4] = tested on: RAW 264.7 cells; assay: Whole cell inhibition assay for urea output; format: cell-based, murine; details: for urea % suppression of induced production: γIFN+LPS, 18 hours
Method: RAW 264.7 cells are plated in microculture wells at 1×10^6/ml in RPMI 1640 with 10% FBS and otherwise standard culture conditions and allowed to adhere for 5 hours. They are then activated with 25 U/ml γIFN and 0.1 μg/ml LPS in the presence of test inhibitors. The urea concentration present in the supernatant media, after 18 hours of culture, is determined by a colorimetric blood urea nitrogen diacetylmonoxime assay performed on an aliquot of the culture supernatant (Sigma Chem. Co., St. Louis, Mo.) and inhibition is expressed as the percentage urea compared to that of a parallel control culture treated identically except that the concentration of added inhibitor is zero.
Various concentrations of the test compounds are included in the media of the stimulated RAW 264.7 cells in culture. The concentration of urea and/or nitrite after 18 hours of activated culture is determined and compared to the uninhibited control value obtained from at least one parallel culture. The fractional reduction is calculated for each concentration of inhibitor and the IC50 (concentration giving 50% reduction) is interpolated. Compounds were dissolved in media with mild heat (60° C.). Those with limited solubility were dissolved in base. The concentration of stock solutions of those compounds which were not completely soluble was determined by OD280.

[5] = tested on: RAW 264.7 cells; assay: Whole cell inhibition assay for arginine uptake; format: cell-based, murine

For CC(=NNC(=N)N)c1cc(NC(=O)CCCCCCCCC(=O)Nc2cc(C(C)=NNC(=N)N)cc(C(C)=NNC(=N)N)c2)cc(C(C)=NNC(=N)N)c1.Cl.Cl.Cl.Cl [Compound 14, N,N′-bis(3,5-diacetyl-phenyl)decanediamide tetrakis(amidinohydrazone) tetrahydrochloride], which “mean infarct (stroke) size, percentage of hemisphere area” value [1] is on record?
Its value is 1.7%±0.2%.

And the “reduction of TNF accumulation in the culture medium” value ([2]; 10 μM, L929 cell bioassay, 18 hr)?
The value was “more than 99%”.

What about the “TNF protein in the medium (Western blot)” value ([2]; 5 and 25 μM) of the same compound?
Its value is “absence of TNF protein”.

And the LD50 ([3]; given intraperitoneally)?
The LD50 was 50 mg/kg.

What about the LD50 ([3]; given orally) of the same compound?
The LD50 was “exceeds 1 g/kg”.

What about the “urea % suppression of induced production” value ([4]; dose 2 μM) of the same compound?
The value was 68%.

What about the “urea % suppression of induced production” value ([4]; dose 10 μM) of the same compound?
Its value is 78%.

What about the “urea % suppression of induced production” value ([4]; dose 50 μM) of the same compound?
Its value is 100%.

What about the “urea % suppression of induced production” value ([4]; dose 200 μM) of the same compound?
Its value is 100%.

And the IC50 ([4]; interpolated, γIFN+LPS-activated RAW 264.7, 18 hours, read-out: I.C.50 (in parenthesis), inhibition of urea production)?
Its IC50 is 1 µM.

And the IC50 ([5]; stimulated 8 hours previously, then exposed 10 minutes in arginine-free buffer, mean±std. err., n=3, read-out: I.C.50 for arginine uptake)?
The IC50 was 60 ± 15 µM.

And the “sensitivity of arginine uptake of unstimulated cells” value ([5]; unstimulated RAW 264.7)?
The value was “insensitive”.
